How the values were obtained:
[1] = tested on: α1β1γ2 GABA-A receptor; details: agonist; nH 1.3
[2] = molecular target: human GAD67 (hGAD67) (Homo sapiens, UniProt Q99259); test: biochemical
[3] = tested on: α5β1γ2 GABA-A receptor; details: agonist; +50 mV; nH 1.8

Sequence of human GAD67 (hGAD67) (Q99259 whole entry): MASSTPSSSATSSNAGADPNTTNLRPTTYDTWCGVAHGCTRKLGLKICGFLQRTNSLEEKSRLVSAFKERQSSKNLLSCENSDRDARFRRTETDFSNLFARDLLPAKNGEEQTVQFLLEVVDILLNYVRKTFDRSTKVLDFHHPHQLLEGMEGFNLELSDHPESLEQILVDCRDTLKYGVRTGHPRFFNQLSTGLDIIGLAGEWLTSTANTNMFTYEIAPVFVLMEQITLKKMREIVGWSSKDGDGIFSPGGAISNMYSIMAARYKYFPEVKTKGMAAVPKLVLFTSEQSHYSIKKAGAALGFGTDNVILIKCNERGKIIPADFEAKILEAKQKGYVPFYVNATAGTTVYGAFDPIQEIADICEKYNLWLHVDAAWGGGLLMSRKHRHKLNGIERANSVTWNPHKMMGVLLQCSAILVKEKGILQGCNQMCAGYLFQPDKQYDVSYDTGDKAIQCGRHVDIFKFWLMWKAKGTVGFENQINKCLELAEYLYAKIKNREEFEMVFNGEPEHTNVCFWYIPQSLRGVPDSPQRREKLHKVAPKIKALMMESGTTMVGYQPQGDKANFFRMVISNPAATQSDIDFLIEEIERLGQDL

## O=C(O)[C@@H]1CCCN1 [L-proline]
[1]
  EC50: 8.3 mM
[2]
  Ki: 7.8 mM
[3]
  EC50: 5.4 mM

From publication PMC5104186 (Cell reports, 2016)
